Results published in US9957288B2, “Pyrabactin analogues to modulate plant development” (Universiteit Gent, priority 2014, dated 2018).
Entries after “also recorded” stand apart in the source; their conditions may differ. Read-outs that look alike come from different tables or passages of the source.

Tests used:
[1] = test system: Arabidopsis thaliana Columbia (Col0) seedlings; assay: Lateral root initiation (lateral roots + lateral root primordia, number and density); assay type: in vivo
[2] = test system: Arabidopsis thaliana seedlings
[3] = test system: Arabidopsis thaliana Columbia (Col0) seedlings; assay: Primary root elongation of etiolated seedlings on compound medium; assay type: in vivo
tobacco epidermal strips = assay: Stomatal closure assay on epidermal strips; assay type: cell-based, Nicotiana tabacum
[4] = test system: Arabidopsis thaliana seeds; assay: Arabidopsis thaliana seed germination assay; assay type: in vivo
[5] = test system: etiolated Arabidopsis thaliana seedlings
[6] = test system: Nicotiana benthamiana leaves; assay: Leaf dehydration assay (weight loss of pre-treated detached leaves in dry air flow); assay type: in vivo; details: for effect on leaf weight loss / transpiration: pre-treatment: ABA 10 and 100 μM, analogues 10 μM, 6 h dry air flow; for % weight loss (average): average of 5-10 leaves, control 29.51%
[7] = 13 d old etiolated seedlings, 10 μM

Row | SMILES | LR ([1]; in vivo) | effect on number of LR+ LRP (lateral root initiation) ([1]; in vivo) | Shoot ([2]; in vivo) | effect on shoot development ([2]; in vivo) | PR ([3]; in vivo) | effect on primary root growth ([3]; in vivo) | Stomata (tobacco epidermal strips) | effect on stomatal aperture (tobacco epidermal strips) | Seed germination ([4]; in vivo) | AR ([5]; in vivo) | effect on adventitious root formation ([5]; in vivo) | effect on LR+ LRP density (per cm primary root) ([1]; in vivo) | effect on seed germination ([4]; in vivo) | also measured
1 | O=S(=O)(NCc1ccccn1)c1ccc(Br)c2ccccc12 [Pyrabactin, pyrabactin] |  |  |  |  |  |  |  |  |  |  |  |  |  | effect on LR+ LRP density (per cm primary root) [1, 7]: significantly increased the LR+ LRP density; effect on number of LR+ LRP (lateral root initiation) [1, 7]: only did moderately affect lateral root initiation; LR ([1]; lateral root, 10 μM, compared with control not-treated seedlings): ++; effect on shoot development ([2]; 10 μM): leaf size was also significantly reduced; Shoot ([2]; 10 μM, compared with control not-treated seedlings): ++; effect on shoot development ([2]; 10 μM, listed as pyrabactin): seedlings with a smaller shoot than control seedlings; reduction of primary root length ([3]; 10 μM): 2.5 fold; PR ([3]; primary root, 10 μM, compared with control not-treated seedlings): ++; Stomata (tobacco epidermal strips; 10 μM, compared with control not-treated epidermal strips): +; effect on stomatal aperture (tobacco epidermal strips; 10 μM, listed as pyrabactin): induced stomatal closure, rapidly but to a much lower degree than ABA; also recorded: demonstrated an effect on the stomata; Seed germination ([4]; 10 μM, compared with control not-treated seeds): ++; effect on seed germination ([4]; different concentrations, gradual and dose-dependent): inhibited seed germination; effect on adventitious root formation ([5]; 10 μM): reduced the formation of these roots; AR ([5]; adventitious root, 10 μM, compared with control not-treated seedlings): +++
2 | CCOP(=O)(NCc1ccncc1)c1ccc(Br)c2ccccc12 (stereo not shown) [Analogue E7, Ethyl N-(pyridin-4-ylmethyl)-P-(4-bromonapht-1-yl)phosphonamidate] | +++ | strong inhibitors | +++ | strong inhibition of the seedling's shoot development | +++ | strongly inhibited primary root growth | 0 | did not affect the size of the stomatal aperture | 0 | +++ | reduction of adventitious root formation, respectively stronger or similar to pyrabactin |  |  | LR+ LRP density ([1]; in vivo): around 5 LR+ LRP per cm primary root
3 | CCOP(=O)(NCc1ccccn1)c1ccc(Br)c2ccccc12 (stereo not shown) [Analogue E1, Ethyl N-(pyridin-2-ylmethyl)-P-(4-bromonapht-1-yl)phosphonamidate] | ++ | strong inhibitors | 0 |  | + | modest inhibitors of primary root elongation | − | did not cause closure of the stomata and even induced the opening | 0 | − |  | strong density reduction (even stronger than ABA) |  | effect on leaf weight loss / transpiration [6]: reduction of transpiration
4 | CCOP(=O)(NCc1ccccn1)c1cccc2ccccc12 (stereo not shown) [Analogue E9, Ethyl N-(pyridin-2-ylmethyl)-P-(napht-1-yl)phosphonamidate] | + | modest to weak inhibitors of lateral root formation | 0 |  | 0 | modest inhibitors of primary root elongation | 0 | did not affect the size of the stomatal aperture | 0 | − |  | reduced the numbers of LR+ LRP similarly to ABA |  | effect on leaf weight loss / transpiration [6]: reduction of transpiration
5 | CC1=CC(=O)CC(C)(C)[C@@]1(O)/C=C/C(C)=C\C(=O)O [ABA, Abscisic acid, reference compound] | +++ | strongly reduced the number of LR+ LRP | +++ |  | +++ |  | +++ | rapidly induces stomatal closure | +++ | 0 | not affected | reduced the number of roots per cm primary root | inhibited seed germination stronger than pyrabactin | % weight loss (average) ([6]; leaves pre-treated with 10 μM): 18.54%; % weight loss (average) ([6]; leaves pre-treated with 100 μM): 16.99%; effect on leaf weight loss / transpiration [6]: significantly less weight loss; reduction of primary root length ([3]; in vivo): 5 fold; relative stomatal aperture (tobacco epidermal strips): 40%; time to 50% of closure of stomata (tobacco epidermal strips): ≤ 10 min
6 | CCOP(=O)(NCc1ccccc1)c1ccc(Br)c2ccccc12 (stereo not shown) [Analogue E4, Ethyl N-(benzyl)-P-(4-bromonapht-1-yl)phosphonamidate] | +++ | strong inhibitors | +++ | strong inhibition of the seedling's shoot development | +++ | strongly inhibited primary root growth | ++ | intermediate stomatal closure | + | +++ | reduction of adventitious root formation, respectively stronger or similar to pyrabactin | strong density reduction (even stronger than ABA) | did not inhibit the germination | cellular toxicity (inhibitory effect on plant development) ([5]; in vivo): exhibits cellular toxicity at the concentration used
7 | CCOP(=O)(NCc1cccnc1)c1ccc(Br)c2ccccc12 (stereo not shown) [Analogue E3, Ethyl N-(pyridin-3-ylmethyl)-P-(4-bromonapht-1-yl)phosphonamidate] | + | modest to weak inhibitors of lateral root formation | 0 |  | 0 | did not show a significant effect | ++ | intermediate stomatal closure | 0 | − |  | reduced the numbers of LR+ LRP similarly to ABA |  | 
8 | CCOP(=O)(NCc1ccccc1)c1ccc(F)c2ccccc12 (stereo not shown) [Analogue E6, Ethyl N-(benzyl)-P-(4-fluoronapht-1-yl)phosphonamidate] | +++ | strong inhibitors | ++ | inhibition of leaf size comparable with pyrabactin | ++ | reducing the root growth comparable to pyrabactin | +++ | strongly induced stomatal closure | 0 | +++ | reduction of adventitious root formation, respectively stronger or similar to pyrabactin | strong density reduction (even stronger than ABA) | did not inhibit the germination | 
9 | CCOP(=O)(NCc1cccnc1)c1ccc(F)c2ccccc12 (stereo not shown) [Analogue E5, Ethyl N-(pyridin-3-ylmethyl)-P-(4-fluoronapht-1-yl)phosphonamidate] | + | modest to weak inhibitors of lateral root formation | 0 |  | + | modest inhibitors of primary root elongation | + | intermediate stomatal closure | +++ | 0 |  |  | significant reduction of the percentage of germinating seeds | 
10 | CCOP(=O)(NCc1ccccn1)c1ccc(F)c2ccccc12 (stereo not shown) [Analogue E2, Ethyl N-(pyridin-2-ylmethyl)-P-(4-fluoronapht-1-yl)phosphonamidate] | + | modest to weak inhibitors of lateral root formation | − | stimulated the development of leaves in comparison with the control | 0 | did not show a significant effect | +++ |  | 0 | − | stimulated AR formation | reduced the numbers of LR+ LRP similarly to ABA |  | stomata closure to % of the start opening (tobacco epidermal strips): 50%; time to 50% of closure of stomata (tobacco epidermal strips): 30 min
11 | CCOP(=O)(Nc1cccnc1)c1ccccc1 (stereo not shown) [Analogue D3, Ethyl N-(pyridin-3-yl)-P-(phenyl)phosphonamidate] | 0 | enhanced lateral root induction | 0 |  | 0 | did not show a significant effect | 0 | intermediate stomatal closure | 0 | 0 |  | increased the LR density |  | 
12 | CCOP(=O)(OCc1ccccn1)c1ccccc1 (stereo not shown) [Analogue D2, Ethyl (pyridin-2-ylmethyl) phenylphosphonate] | 0 | did not have a significant effect | 0 |  | 0 | did not show a significant effect | 0 | did not affect the size of the stomatal aperture | 0 | 0 |  | did not significantly affect the LR numbers |  | 
